# Assay results: US20180273531A1, “PYRIMIDINE COMPOUND AND MEDICAL USE THEREOF” (Japan Tobacco Inc., priority 2004, published 2018)
# What was measured:
# Assay type in all cases: cell-based
# [1] = test system: ACHN cells or HT-29 cells; assay: Cell cycle analysis (flow cytometry, CycleTEST PLUS); conditions: test substance less than 10 μM, 24 hrs, compared to DMSO, n=2, read-out: CELL RATIO OF G0/G1 PHASE
# Description: ACHN cells or HT-29 cells were cultured in a 6 well plate at 2.5×10^5 cells/1.8 mL/well for 24 hrs, then a test substance (less than 10 μM) dissolved in DMSO was added. After 24 hrs, cells were detached using trypsin-EDTA and the DNA content of single cell was analyzed by flow cytometry method using a CycleTEST PLUS (BECKTON DICKINSON) kit, and the proportion of the cells in the G0/G1 phase·S phase·G2/M phase was calculated. As a control, DMSO was used and the test was performed with n=2.
# [2] = test system: p15 protein; assay: Evaluation of p15 induction activity (Western blotting); conditions: test substance 0.1 μM, 24 hrs, ACHN cells or HT-29 cells, compared to DMSO, n=2
# Method in brief: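 p15 protein quantified by densitometry of anti-p15 Western blots (10 μg protein per lane, mean of n=2). Samples came from HT-29 or ACHN cells given 0.1 μM compound for 24 h after 24 h plating, with DMSO as control.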
# [3] = test system: colorectal cancer cell line HT-29 cells; assay: Growth inhibitory effect against cancer cell lines (3H-thymidine uptake), HT-29; conditions: Homo sapiens, HT-29, inhibition of 3H-thymidine uptake; test substance 18 hrs, then 3H-thymidine 6 hrs; triplicate
# Method in brief: (§1)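 IC50 = concentration reducing ^3H-thymidine incorporation to 50% of DMSO control, measured in triplicate. Compound added 24 hrs after plating (1.0×10^4 cells/well); label (0.25 μCi/well) given after 18 hrs of treatment, followed by 6 hrs further culture and scintillation counting of harvested cells.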
# [4] = test system: p27 protein; assay: p27 protein induction test (Western blotting); conditions: test substance (0.1 1M), 24 hrs, ACHN cells or HT-29 cells, compared to DMSO, n=2
# Method in brief: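 p27 level taken as anti-p27 band density by densitometry, mean of n=2, with DMSO as control. Samples loaded at amount equivalent to 10 μg BSA. Cells were ACHN or HT-29, exposed 24 h to […] test substance after 24 h pre-culture.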
# [5] = test system: Renal cancer cell line ACHN cell; assay: Growth inhibitory effect against cancer cell lines (3H-thymidine uptake), ACHN; conditions: Homo sapiens, ACHN
# Method in brief: as §1
IC50 [3],IC50 [5],SMILES,fold induction [1],fold induction at 0.1 µM [2],fold induction at up to 10 µM [1],fold induction at 0.1 µM [4]
–,–,Cn1c(=O)cc(Nc2ccc(Cl)cc2)c2c(=O)n(-c3ccsc3)c(=O)n(-c3ccsc3)c21 [Example 1-77],≥ 1.2,≥ 1.5,–,–
–,–,Cc1c(Nc2ccc(Cl)cc2)c2c(=O)n(-c3ccccc3)c(=O)n(-c3ccccc3)c2n(C)c1=O [Example 1-43],≥ 1.2,≥ 1.5,–,–
–,–,CN(C)c1ccc(Nc2cc(=O)n(C)c3c2c(=O)n(CC(F)(F)F)c(=O)n3-c2ccccc2)cc1 [Example 1-93],≥ 1.2,≥ 1.5,–,–
–,–,CC(C)c1ccc(Nc2cc(=O)n(C)c3c2c(=O)n(-c2ccccc2)c(=O)n3-c2ccccc2)cc1 [Example 1-25],≥ 1.2,–,–,–
–,–,Cn1c(=O)cc(Nc2ccc(Cl)cc2)c2c(=O)n(C3CC3)c(=O)n(-c3ccccc3C(F)(F)F)c21 [Example 1-101],≥ 1.2,–,–,–
–,–,CCc1ccccc1-n1c(=O)n(C2CC2)c(=O)c2c(Nc3ccc(Cl)cc3)cc(=O)n(C)c21 [Example 1-103],≥ 1.2,≥ 1.5,–,–
–,–,Cn1c(=O)cc(Nc2ccc(Cl)cc2)c2c(=O)n(C3CC3)c(=O)n(-c3ccccc3)c21 [Example 1-84],≥ 1.2,≥ 1.5,–,–
–,–,CCc1ccc(Nc2cc(=O)n(C)c3c2c(=O)n(-c2ccccc2)c(=O)n3-c2ccccc2)cc1 [Example 1-21],≥ 1.2,–,–,–
–,–,CCn1c(=O)c2c(Nc3ccc(Cl)cc3)cc(=O)n(C)c2n(-c2ccc(Cl)cc2)c1=O [Example 1-94],–,≥ 1.5,≥ 1.2,–
–,–,CNc1ccc(Nc2cc(=O)n(C)c3c2c(=O)n(-c2ccccc2)c(=O)n3-c2ccccc2)cc1 [Example 1-49],≥ 1.2,≥ 1.5,–,–
–,–,CCCc1ccccc1Nc1cc(=O)n(C)c2c1c(=O)n(-c1ccccc1)c(=O)n2-c1ccccc1 [Example 1-50],≥ 1.2,–,–,–
100 to 1000 nM,–,Cn1c(=O)cc(Nc2ccc(Cl)cc2)c2c(=O)n(-c3ccccc3)c(=O)n(-c3ccccc3)c21 [Example 1-2],≥ 1.2,–,–,–
–,–,CCCc1c(Nc2ccc(Cl)cc2)c2c(=O)n(-c3ccccc3)c(=O)n(-c3ccccc3)c2n(C)c1=O [Example 1-91],≥ 1.2,–,–,–
< 10 nM,10 to 100 nM,CC(=O)Nc1cccc(-n2c(=O)n(C3CC3)c(=O)c3c(Nc4ccc(Br)cc4F)cc(=O)n(C)c32)c1 [Example 1-245],–,≥ 1.5,–,≥ 1.5
< 10 nM,10 to 100 nM,Cc1c(=O)n(C)c(Nc2ccc(I)cc2F)c2c(=O)n(C3CC3)c(=O)n(-c3cccc(NS(=O)(=O)N4CCCCC4)c3)c12 [Example 4-59],–,≥ 1.5,–,≥ 1.5
< 10 nM,10 to 100 nM,Cc1c(=O)n(C)c(Nc2ccc(Br)cc2F)c2c(=O)n(C3CC3)c(=O)n(-c3cccc(NS(C)(=O)=O)c3)c12 [Example 3-4],–,≥ 1.5,–,≥ 1.5
10 to 100 nM,100 to 1000 nM,Cn1c(=O)c2c(Nc3ccc(Br)cc3F)cc(=O)n(C)c2n(-c2ccccc2)c1=O [Example 1-185],–,≥ 1.5,–,≥ 1.5
10 to 100 nM,100 to 1000 nM,C#Cc1ccc(Nc2c3c(=O)n(C4CC4)c(=O)n(-c4ccc(NC(C)=O)cc4)c3c(C)c(=O)n2C)c(F)c1 [Example 4-71],–,≥ 1.5,–,≥ 1.5
< 10 nM,10 to 100 nM,CSc1ccc(Nc2cc(=O)n(C)c3c2c(=O)n(C2CC2)c(=O)n3-c2cccc(NC(C)=O)c2)c(F)c1 [Example 1-341],–,≥ 1.5,–,≥ 1.5
< 10 nM,< 10 nM,Cc1c(=O)n(C)c(Nc2ccc(I)cc2F)c2c(=O)n(C3CC3)c(=O)n(-c3cccc(NC=O)c3)c12 [Example 4-113],–,≥ 1.5,–,≥ 1.5

IC50 [3],IC50 [5],SMILES,fold induction [1],fold induction at 0.1 µM [2],fold induction at up to 10 µM [1],fold induction at 0.1 µM [4]
–,–,Cn1c(=O)cc(Nc2ccc(Cl)cc2)c2c(=O)n(CC(F)(F)F)c(=O)n(-c3ccccc3)c21 [Example 1-90],≥ 1.2,–,–,–
< 10 nM,10 to 100 nM,Cc1c(=O)n(C)c(Nc2ccc(I)cc2F)c2c(=O)n(C3CC3)c(=O)n(-c3ccc4c(c3)NC(=O)C4(C)C)c12 [Example 4-128],–,≥ 1.5,–,≥ 1.5
100 to 1000 nM,100 to 1000 nM,CN(C)c1ccc(Nc2cc(=O)n(C)c3c2c(=O)n(C2CC2)c(=O)n3-c2ccccc2F)cc1 [Example 1-114],–,≥ 1.5,–,≥ 1.5
10 to 100 nM,100 to 1000 nM,Cn1c(=O)cc(Nc2ccc3sccc3c2)c2c(=O)n(C3CC3)c(=O)n(-c3ccccc3)c21 [Example 1-328],–,≥ 1.5,–,≥ 1.5
10 to 100 nM,100 to 1000 nM,C#Cc1ccc(Nc2c3c(=O)n(C4CC4)c(=O)n(-c4ccc(F)c(NC(C)=O)c4)c3c(C)c(=O)n2C)c(F)c1 [Example 4-102],–,≥ 1.5,–,≥ 1.5
< 10 nM,10 to 100 nM,C#Cc1ccc(Nc2cc(=O)n(C)c3c2c(=O)n(C2CC2)c(=O)n3-c2cccc(NS(=O)(=O)CC)c2)cc1 [Example 1-298],–,≥ 1.5,–,≥ 1.5
< 10 nM,100 to 1000 nM,CC(=O)Nc1cccc(-n2c(=O)n(C3CC3)c(=O)c3c(Nc4ccc(CCF)cc4F)cc(=O)n(C)c32)c1 [Example 1-342],–,≥ 1.5,–,≥ 1.5
< 10 nM,10 to 100 nM,CCC(=O)Nc1cccc(-n2c(=O)n(C3CC3)c(=O)c3c(Nc4ccc(I)cc4F)n(C)c(=O)c(C)c32)c1 [Example 4-60],–,≥ 1.5,–,≥ 1.5
10 to 100 nM,100 to 1000 nM,Cn1c(=O)cc(Nc2ccc(Br)cc2F)c2c(=O)n(C3CC3)c(=O)n(-c3cccc(NS(=O)(=O)CCl)c3)c21 [Example 1-282],–,≥ 1.5,–,≥ 1.5
< 10 nM,10 to 100 nM,Cn1c(=O)cc(Nc2ccc(I)cc2Cl)c2c(=O)n(C3CC3)c(=O)n(-c3cccc(NS(C)(=O)=O)c3)c21 [Example 1-322],–,≥ 1.5,–,≥ 1.5
< 10 nM,10 to 100 nM,Cc1c(=O)n(C)c(Nc2ccc(I)cc2F)c2c(=O)n(C3CC3)c(=O)n(-c3ccc4c(c3)NC(=O)CO4)c12 [Example 4-118],–,≥ 1.5,–,≥ 1.5
< 10 nM,10 to 100 nM,C=Cc1ccc(Nc2c3c(=O)n(C4CC4)c(=O)n(-c4cccc(NC(C)=O)c4)c3c(C)c(=O)n2C)c(F)c1 [Example 4-11],–,≥ 1.5,–,≥ 1.5
< 10 nM,10 to 100 nM,CNC(=O)c1ccc(-n2c(=O)n(C3CC3)c(=O)c3c(Nc4ccc(I)cc4F)n(C)c(=O)c(C)c32)cc1 [Example 4-92],–,≥ 1.5,–,≥ 1.5
< 10 nM,< 10 nM,CC(C)S(=O)(=O)Nc1cccc(-n2c(=O)n(C3CC3)c(=O)c3c(Nc4ccc(I)cc4F)cc(=O)n(C)c32)c1 [Example 1-319],–,≥ 1.5,–,≥ 1.5
< 10 nM,10 to 100 nM,Cc1c(=O)n(C)c(Nc2ccc(I)cc2F)c2c(=O)n(C3CC3)c(=O)n(-c3cccc(N4CCN(C)CC4=O)c3)c12 [Example 4-122],–,≥ 1.5,–,≥ 1.5
< 10 nM,10 to 100 nM,Cc1c(=O)n(C)c(Nc2ccc(I)cc2F)c2c(=O)n(C3CC3)c(=O)n(-c3cccc(N4CCNC4=O)c3)c12 [Example 4-124],–,≥ 1.5,–,≥ 1.5
< 10 nM,10 to 100 nM,CON(C)C(=O)Nc1cccc(-n2c(=O)n(C3CC3)c(=O)c3c(Nc4ccc(I)cc4F)n(C)c(=O)c(C)c32)c1 [Example 4-80],–,≥ 1.5,–,≥ 1.5
< 10 nM,10 to 100 nM,CC(=O)Nc1cccc(-n2c(=O)n(C3CC3)c(=O)c3c(Nc4ccc(C5CC5)cc4F)n(C)c(=O)c(C)c32)c1 [Example 4-67],–,≥ 1.5,–,≥ 1.5
10 to 100 nM,100 to 1000 nM,Cc1cc(N(C)C)ccc1Nc1cc(=O)n(C)c2c1c(=O)n(C1CC1)c(=O)n2-c1ccccc1 [Example 1-112],–,≥ 1.5,–,≥ 1.5
< 10 nM,10 to 100 nM,CC(=O)Nc1cccc(-n2c(=O)n(C3CC3)c(=O)c3c(Nc4ccc(C(C)C)cc4F)n(C)c(=O)c(C)c32)c1 [Example 4-98],–,≥ 1.5,–,≥ 1.5
